From patent EP3628659A1, “SELENOESTER-CONTAINING COMPOUNDS FOR USE IN THE TREATMENT OF MICROBIAL INFECTIONS OR COLORECTAL CANCER” (Consejo Superior De Investigaciones Científicas, priority 2018, dated 2020)
pIC50: −log10 of the molar value.

Experiments:
[1] = biological target: T1, ABCB1 efflux pump (Homo sapiens, UniProt P08183); test: Rhodamine 123 assay of inhibition of MDR efflux pumps (flow cytometry); format: cell-based; conditions: Quotient = 100 × FARcompound/FARverapamil, verapamil 20 µM, Colo 320 vs Colo 205; for Inhibition of efflux pumps At 2 µM concentration: compound 2 µM; for Inhibition of efflux pumps At 20 µM concentration: compound 20 µM
T1 construct: The colonic adenocarcinoma cells (the doxorubicin-sensitive Colo 205 and the multidrug resistant Colo 320); host or cells: Colo 320/MDR-LRP (multidrug resistant), with Colo 205 (ATCC-CCL-222) as the sensitive parental comparator
Protocol: This method, described in Gajdács et al, 2017, Bioorg Med Chem Lett. 27(4): 797-802, is a fluorescence-based detection system which uses verapamil as reference inhibitor of the ABCB1 efflux pump. The colonic adenocarcinoma cells (the doxorubicin-sensitive Colo 205 and the multidrug resistant Colo 320) were adjusted to a density of 2×10^6/mL, re-suspended in serum-free RPMI 1640 medium and distributed in 0.5 mL aliquots into Eppendorf centrifuge tubes. Selenocompounds (1 and 10 µL from a stock solution of 1 mM, respectively) were added at different concentrations (2 µM and 20 µM final concentrations, respectively), and the samples were incubated for 10 min at room temperature. Next, 10 µL (5.2 µM final concentration) of rhodamine 123 was added to the samples and the cells were incubated for 20 minutes at 37°C, washed twice with phosphate buffered saline (PBS) and re-suspended in 1 mL PBS for analysis. The fluorescence intensity of the cell population was measured with a Partec CyFlow flow cytometer (Partec, Munster, Germany). Verapamil was used as a positive control at 20 µM final concentration in the rhodamine 123 exclusion experiments. The mean fluorescence intensity (%) was calculated for the treated multidrug resistance (MRD) Colo 320 and sensitive Colo 205 cell lines as compared to the untreated cells. The fluorescence activity ratio (FAR) was calculated based on the following equation which relates the measured fluorescence values: FAR = (MDRtreated /MDRcontrol)/(parentaltreated /parentalcontrol); Quotient = 100 × (FARcompound/FARverapamil) [formula]

[2] = tested on: Staphylococcus aureus 25923 ATCC; test: MIC determination (CLSI), S. aureus 25923 ATCC; format: cell-based; conditions: MIC class
Protocol: (§1) The effects exerted by different concentrations of the compounds on bacterial growth in Staphylococcus aureus 25923 ATCC, Staphylococcus aureus multidrug resistant 272123 clinical isolate (MRSA), Escherichia coli AG100 or Escherichia coli AG100 A were tested in 96-well plates. The MIC of selenocompounds was determined according to Clinical and Laboratory Standard Institute (CLSI) guidelines. The solvent used (DMSO) had no antibacterial effect. Alternatively, the MICs of oxacillin of the compounds in MRSA HEMSA 5 were determined by a broth microdilution method in cation-adjusted Mueller-Hinton Broth (MHB II) according to the recommendations of the CLSI. Results were recorded after a 20- or 24-hour incubation at 37°C.

[3] = tested on: Staphylococcus aureus multidrug resistant 272123 clinical isolate (MRSA); format: cell-based; conditions: MIC class
Protocol: as §1

[4] = tested on: Escherichia coli AG100; test: MIC determination (CLSI), E. coli AG100; format: cell-based; conditions: MIC class
Protocol: as §1

[5] = tested on: Steinernema feltiae; test: Nematicidal activity (viability count), Steinernema feltiae; format: in vivo; conditions: IC50 class, tested at 50, 100, 150 and 200 µM, viability at 24 h
Protocol: The compounds were tested for their antifungal and nematicidal properties against the fungi Candida albicans and Saccharomyces cerevisiae, and against the nematode Steinernema feltiae.
The soil nematodes S. feltiae were purchased from Sautter and Stepper GmbH (Ammerbuch, Germany) and stored at 4 °C in the dark. Before each experiment, fresh samples of nematodes were purchased and stored in the fridge upon arrival and used for a maximum of six days. To perform the assay, 200 mg of nematodes was reconstituted in 50 mL of phosphate buffered saline (PBS) (pH = 7.4) to form a homogenous suspension to revive the nematodes. Afterwards, the individual suspensions were allowed to rest at room temperature. The sedimentation was avoided with occasional shaking in moderate light and at room temperature (25 °C) for 30 min. Viability of the nematodes was determined by counting the live and dead nematodes under a light microscope (TR 200, VWR International, Leuven, Belgium) at four-fold magnification. An initial viability value of more than 90 percent was considered necessary to perform the experiments.
Sample solutions were added into the wells of a 96-well plate to achieve at final concentrations of 50,100, 150, and 200 µM. Afterwards, 10 µL of nematode suspension was added to each well and the final volume in each well was adjusted to 100 µL with phosphate buffered saline (PBS) (pH = 7.4). PBS was used in the negative control and ethanol in the positive control. Viability was determined at 0 h and 24 h by counting the live and dead nematodes, whereby 50 µL of lukewarm water (40 °C) were added to each well to stimulate the nematodes for the 24 h reading. Each experiment was performed independently in triplicate and on three different occasions (n = 9).
For the three organisms considered (C. albicans, S. cerevisiae and S. feltiae), the inhibitory concentration 50% (IC50) is defined as the concentration that inhibits the viability of the respective organism to a 50% of the viability determined for the negative control.

T1 sequence (P08183 whole entry): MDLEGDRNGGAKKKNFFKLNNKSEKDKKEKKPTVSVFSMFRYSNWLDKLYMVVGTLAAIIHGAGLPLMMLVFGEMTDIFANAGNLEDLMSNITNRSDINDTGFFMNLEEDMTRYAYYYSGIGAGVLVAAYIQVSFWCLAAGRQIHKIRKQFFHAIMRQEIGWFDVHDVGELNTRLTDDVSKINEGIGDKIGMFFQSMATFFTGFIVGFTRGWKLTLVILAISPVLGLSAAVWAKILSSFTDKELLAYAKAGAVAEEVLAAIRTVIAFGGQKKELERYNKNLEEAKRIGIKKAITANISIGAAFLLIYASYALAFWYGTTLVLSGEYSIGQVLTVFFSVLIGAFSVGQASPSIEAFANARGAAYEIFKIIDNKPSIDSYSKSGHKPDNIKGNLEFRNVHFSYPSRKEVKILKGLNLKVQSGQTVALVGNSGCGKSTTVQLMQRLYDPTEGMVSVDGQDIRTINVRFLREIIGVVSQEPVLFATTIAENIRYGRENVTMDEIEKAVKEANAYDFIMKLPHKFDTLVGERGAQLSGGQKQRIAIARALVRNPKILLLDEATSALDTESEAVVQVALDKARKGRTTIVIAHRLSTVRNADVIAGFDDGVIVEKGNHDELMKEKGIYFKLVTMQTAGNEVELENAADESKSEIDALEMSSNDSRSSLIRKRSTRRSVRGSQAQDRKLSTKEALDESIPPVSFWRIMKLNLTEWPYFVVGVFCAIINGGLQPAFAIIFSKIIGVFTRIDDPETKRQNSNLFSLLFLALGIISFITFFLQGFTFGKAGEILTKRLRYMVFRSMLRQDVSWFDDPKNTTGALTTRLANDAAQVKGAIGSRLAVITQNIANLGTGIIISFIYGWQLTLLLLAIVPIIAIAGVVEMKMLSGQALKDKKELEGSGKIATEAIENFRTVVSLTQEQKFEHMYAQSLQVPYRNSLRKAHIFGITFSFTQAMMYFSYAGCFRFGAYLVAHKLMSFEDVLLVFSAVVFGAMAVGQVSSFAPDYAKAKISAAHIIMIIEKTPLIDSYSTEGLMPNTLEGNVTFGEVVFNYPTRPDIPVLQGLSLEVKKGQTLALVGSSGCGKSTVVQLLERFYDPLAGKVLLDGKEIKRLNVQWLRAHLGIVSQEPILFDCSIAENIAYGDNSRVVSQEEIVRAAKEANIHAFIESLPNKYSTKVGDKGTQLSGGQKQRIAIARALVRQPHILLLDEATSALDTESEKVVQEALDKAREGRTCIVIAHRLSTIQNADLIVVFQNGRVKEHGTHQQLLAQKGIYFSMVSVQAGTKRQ

| Structure (SMILES) | Inhibition of efflux pumps At 2 µM concentration [1] | Inhibition of efflux pumps At 20 µM concentration [1] | Antibacterial activity Against S. aureus 25923 ATCC [2] | Antibacterial activity Against S. aureus MRSA 272123 [3] | Antibacterial activity Against E. coli AG100 [4] | pIC50 [5] |
| --- | --- | --- | --- | --- | --- | --- |
| N#CC[Se]C(=O)c1ccc(C(=O)[Se]CC#N)cc1 [Compound 18, Se,Se-bis-(cyanomethyl) benzene-1,4-bis-(carboselenoate)] | ** (Potent inhibitors of MDR efflux pumps: 100% ≤ Quotient < 200% (from 1- to 2-fold more potent than reference verapamil)) | ** (Potent inhibitors of MDR efflux pumps: 100% ≤ Quotient < 200% (from 1- to 2-fold more potent than reference verapamil)) | *** (Potent antibacterial compounds: 1 µM < MIC ≤ 10 µM) | ** (Moderate antibacterial compounds: 10 µM < MIC ≤ 50 µM) | ** (Moderate antibacterial compounds: 10 µM < MIC ≤ 50 µM) | 4.30 to 5.00 |
| CC(=O)C[Se]C(=O)c1cccc(C(=O)[Se]CC(C)=O)c1 [Compound 23, Se,Se-bis-(2-oxopropyl) benzene-1,3-bis-(carboselenoate)] | *** (Very potent inhibitors of MDR efflux pumps: Quotient ≥ 200% (≥ 2-fold more potent than reference verapamil)) | *** (Very potent inhibitors of MDR efflux pumps: Quotient ≥ 200% (≥ 2-fold more potent than reference verapamil)) | **** (Very potent antibacterial compounds: MIC ≤ 1 µM) | *** (Potent antibacterial compounds: 1 µM < MIC ≤ 10 µM) | ** (Moderate antibacterial compounds: 10 µM < MIC ≤ 50 µM) | < 4.00 |
| CC(=O)C[Se]C(=O)c1cc(C(=O)[Se]CC(C)=O)cc(C(=O)[Se]CC(C)=O)c1 [Compound 24, Se,Se,Se-tris-(2-oxopropyl) benzene-1,3,5-tris-(carboxyselenoate)] | *** (Very potent inhibitors of MDR efflux pumps: Quotient ≥ 200% (≥ 2-fold more potent than reference verapamil)) | *** (Very potent inhibitors of MDR efflux pumps: Quotient ≥ 200% (≥ 2-fold more potent than reference verapamil)) | **** (Very potent antibacterial compounds: MIC ≤ 1 µM) | **** (Very potent antibacterial compounds: MIC ≤ 1 µM) | ** (Moderate antibacterial compounds: 10 µM < MIC ≤ 50 µM) | < 4.00 |
| CC(=O)C[Se]C(=O)c1ccc(C(=O)[Se]CC(C)=O)cc1 [Compound 22, Se,Se-bis-(2-oxopropyl) benzene-1,4-bis-(carboselenoate)] | *** (Very potent inhibitors of MDR efflux pumps: Quotient ≥ 200% (≥ 2-fold more potent than reference verapamil)) | *** (Very potent inhibitors of MDR efflux pumps: Quotient ≥ 200% (≥ 2-fold more potent than reference verapamil)) | **** (Very potent antibacterial compounds: MIC ≤ 1 µM) | *** (Potent antibacterial compounds: 1 µM < MIC ≤ 10 µM) | ** (Moderate antibacterial compounds: 10 µM < MIC ≤ 50 µM) | 4.00 to 4.30 |
| N#CC[Se]C(=O)c1cc(C(=O)[Se]CC#N)cc(C(=O)[Se]CC#N)c1 [Compound 20, Se,Se,Se-tris-(cyanomethyl) benzene-1,3,5-tris-(carboxyselenoate)] | ** (Potent inhibitors of MDR efflux pumps: 100% ≤ Quotient < 200% (from 1- to 2-fold more potent than reference verapamil)) | ** (Potent inhibitors of MDR efflux pumps: 100% ≤ Quotient < 200% (from 1- to 2-fold more potent than reference verapamil)) |  |  | NA (Not antibacterial compounds: MIC ≥ 100 µM) | < 4.00 |
| N#CC[Se]C(=O)c1cccc(C(=O)[Se]CC#N)c1 [Compound 19, Se,Se-bis-(cyanomethyl)benzene-1,3-bis-(carboselenoate)] | ** (Potent inhibitors of MDR efflux pumps: 100% ≤ Quotient < 200% (from 1- to 2-fold more potent than reference verapamil)) | ** (Potent inhibitors of MDR efflux pumps: 100% ≤ Quotient < 200% (from 1- to 2-fold more potent than reference verapamil)) | *** (Potent antibacterial compounds: 1 µM < MIC ≤ 10 µM) | ** (Moderate antibacterial compounds: 10 µM < MIC ≤ 50 µM) | NA (Not antibacterial compounds: MIC ≥ 100 µM) | 4.30 to 5.00 |
